The text below walks through data of US10683329B2, “Dual-site BACE1 inhibitors” (priority 2014, dated 2020).

Where a SMILES comes first, the peptide text is derived from it. [ ]: non-standard residue; d: D form. The star is where a group is joined. Succinyl(4-O-cholesteryl) = CC(C)CCC[C@@H](C)[C@H]1CC[C@H]2[C@@H]3CC=C4C[C@@H](OC(=O)CCC(=O)*)CC[C@]4(C)[C@H]3CC[C@]12C; Sta = CC(C)C[C@H](N)[C@@H](O)CC(=O)O; PEG4 = NCCOCCOCCOCCOCCC(=O)O

The assay concerns the target T1, BACE1 (Homo sapiens, UniProt P56817).
T1 construct: Human HEK293 cells which are stably transfected with a vector expressing a cDNA of the human APP wt gene (APP695); endogenous in cells; host or cells: HEK293 (human), stably transfected with human APP695 wt
Kind of assay: Cellular Aβ-lowering assay (Aβ40 ELISA of culture supernatant). Type of assay: cell-based. As to conditions: Aβ40 in supernatant of human HEK293 cells stably transfected with human APP wt (APP695); 18-20 hrs incubation; read-out: IC 50. As to the method:
The compounds were investigated in accordance with the test given hereinafter.
Cellular Aβ-Lowering Assay:
Human HEK293 cells which are stably transfected with a vector expressing a cDNA of the human APP wt gene (APP695) were used to assess the potency of the compounds in a cellular assay. The cells were seeded in 96-well microtiter plates in cell culture medium (Iscove, plus 10% (v/v) fetal bovine serum, glutamine, penicillin/streptomycin) to about 80% confluence and the compounds were added at a 10× concentration in 1/10 volume of medium without FCS containing 8% DMSO (final concentration of DMSO was kept at 0.8% v/v). After 18-20 hrs incubation at 37° C. and 5% CO2 in a humidified incubator the culture supernatant was harvested for the determination of Aβ40 concentrations. 96 well ELISA plates (e.g., Nunc MaxiSorb) were coated with monoclonal antibody which specifically recognize the C-terminal end of Aβ40 (Brockhaus et al., NeuroReport 9; 1481-1486; 1998). After blocking of non-specific binding sites with e.g. 1% BSA and washing, the culture supernatants were added in suitable dilutions together with a horseradish peroxidase-coupled Aβ detection antibody (e.g., antibody 4G8, Senetek, Maryland Heights, Mo.) and incubated for 5 to 7 hrs. Subsequently the wells of the microtiter plate were washed extensively with Tris-buffered saline containing 0.05% Tween 20 and the assay was developed with tetramethylbenzidine/H2O2 in citric acid buffer. After stopping the reaction with one volume 1 N H2SO4 the reaction was measured in an ELISA reader at 450 nm wavelength. The concentrations of Aβ in the culture supernatants were calculated from a standard curve obtained with known amounts of pure Aβ peptide.
On the technique in general: In an ELISA, binding on a coated surface is turned into a signal by an enzyme label.

T1 sequence (P56817 46-501): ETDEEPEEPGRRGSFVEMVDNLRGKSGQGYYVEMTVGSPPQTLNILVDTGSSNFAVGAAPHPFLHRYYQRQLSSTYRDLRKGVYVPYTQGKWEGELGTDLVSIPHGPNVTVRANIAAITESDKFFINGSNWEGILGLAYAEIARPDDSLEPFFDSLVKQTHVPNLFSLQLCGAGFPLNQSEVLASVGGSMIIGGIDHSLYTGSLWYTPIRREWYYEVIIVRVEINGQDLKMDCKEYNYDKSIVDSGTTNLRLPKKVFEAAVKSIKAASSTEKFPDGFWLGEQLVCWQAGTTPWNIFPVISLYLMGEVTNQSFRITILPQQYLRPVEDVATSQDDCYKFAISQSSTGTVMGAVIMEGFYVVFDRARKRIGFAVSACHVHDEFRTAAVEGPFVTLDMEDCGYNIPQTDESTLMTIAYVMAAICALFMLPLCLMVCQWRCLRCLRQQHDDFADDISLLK

`CC(C)CCC[C@@H](C)[C@H]1CC[C@H]2[C@@H]3CC=C4C[C@@H](OC(=O)CCC(=O)NCCCC[C@H](NC(=O)[C@H]5CCCN5C(=O)[C@H](CCC(=O)O)NC(=O)[C@H](C)NC(=O)[C@@H](NC(=O)C[C@H](O)[C@H](CC(C)C)NC(=O)[C@H](CC(N)=O)NC(=O)[C@@H](NC(=O)[C@H](CCC(=O)O)NC(=O)CCOCCOCCOCCOCCNC(=O)[C@H](CC(C)C)NC(=O)[C@@H]5CCCN5C(=O)[C@H](CCCCN)NC(=O)[C@H](Cc5ccccc5)NC(=O)[C@H](Cc5ccc(O)cc5)NC(=O)[C@@H]5CCCN5C(=O)[C@@H](N)Cc5ccc(O)cc5)C(C)C)C(C)C)C(N)=O)CC[C@]4(C)[C@H]3CC[C@]12C` [Example 34, Tyr-Pro-Tyr-Phe-Lys-Pro-Leu-PEG(4)-Glu-Val-Asn-Sta-Val-Ala-Glu-DPro-Lys(Chol)-NH2] (H-YPYFKPL[PEG4]EVN[Sta]VAE[dP]K(Succinyl(4-O-cholesteryl))-NH2): the IC50 was determined as 0.0235 nM.

Regarding `CC[C@H](C)[C@H](NC(=O)[C@H](Cc1ccccc1)NC(=O)[C@H](Cc1ccc(O)cc1)NC(=O)[C@@H]1CCCN1C(=O)[C@@H](N)Cc1ccc(O)cc1)C(=O)N1CCC[C@H]1C(=O)N[C@@H](CC(C)C)C(=O)N[C@@H](CCCCN)C(=O)NCC(=O)NCC(=O)N[C@@H](CCC(=O)O)C(=O)N[C@H](C(=O)N[C@@H](CC(N)=O)C(=O)N[C@@H](CC(C)C)[C@@H](O)CC(=O)N[C@H](C(=O)N[C@@H](C)C(=O)N[C@@H](CCC(=O)O)C(=O)N1CCC[C@@H]1C(=O)N[C@@H](CCCCNC(=O)CCC(=O)O[C@H]1CC[C@@]2(C)C(=CC[C@H]3[C@@H]4CC[C@H]([C@H](C)CCCC(C)C)[C@@]4(C)CC[C@@H]32)C1)C(N)=O)C(C)C)C(C)C` [Example 40, Tyr-Pro-Tyr-Phe-Ile-Pro-Leu-Lys-Gly-Gly-Glu-Val-Asn-Sta-Val-Ala-Glu-DPro-Lys(Chol)-NH2], the IC50 came out at 0.0235 nM.

For `CC[C@H](C)[C@H](NC(=O)[C@H](Cc1ccccc1)NC(=O)[C@H](Cc1ccc(O)cc1)NC(=O)[C@@H]1CCCN1C(=O)[C@@H](N)CCCCN)C(=O)N1CCC[C@H]1C(=O)N[C@@H](CC(C)C)C(=O)NCC(=O)N[C@H](CCCCN)C(=O)NCC(=O)N[C@@H](CCC(=O)O)C(=O)N[C@H](C(=O)N[C@@H](CC(N)=O)C(=O)N[C@@H](CC(C)C)[C@@H](O)CC(=O)N[C@H](C(=O)N[C@@H](C)C(=O)N[C@@H](CCC(=O)O)C(=O)N1CCC[C@@H]1C(=O)N[C@@H](CCCCNC(=O)CCC(=O)O[C@H]1CC[C@@]2(C)C(=CC[C@H]3[C@@H]4CC[C@H]([C@H](C)CCCC(C)C)[C@@]4(C)CC[C@@H]32)C1)C(N)=O)C(C)C)C(C)C` [Example 48, Lys-Pro-Tyr-Phe-Ile-Pro-Leu-Gly-DLys-Gly-Glu-Val-Asn-Sta-Val-Ala-Glu-DPro-Lys(Chol′estert)-NH2] (H-KPYFIPLG[dK]GEVN[Sta]VAE[dP]K(Succinyl(4-O-cholesteryl))-NH2), the IC50 turned out to be 0.02 nM.

As to `CC[C@H](C)[C@H](NC(=O)[C@H](Cc1ccccc1)NC(=O)[C@H](Cc1ccc(O)cc1)NC(=O)[C@@H]1CCCN1C(=O)[C@@H](N)Cc1ccc(O)cc1)C(=O)N1CCC[C@H]1C(=O)N[C@@H](CC(C)C)C(=O)NCC(=O)N[C@H](C)C(=O)NCC(=O)N[C@@H](CCC(=O)O)C(=O)N[C@H](C(=O)N[C@@H](CC(N)=O)C(=O)N[C@@H](CC(C)C)[C@@H](O)CC(=O)N[C@H](C(=O)N[C@@H](C)C(=O)N[C@@H](CCC(=O)O)C(=O)N1CCC[C@@H]1C(=O)N[C@@H](CCCCNC(=O)CCC(=O)O[C@H]1CC[C@@]2(C)C(=CC[C@H]3[C@@H]4CC[C@H]([C@H](C)CCCC(C)C)[C@@]4(C)CC[C@@H]32)C1)C(N)=O)C(C)C)C(C)C` [Example 53, Tyr-Pro-Tyr-Phe-Ile-Pro-Leu-Gly-DAla-Gly-Glu-Val-Asn-Sta-Val-Ala-Glu-DPro-Lys(Chol′ester′)-NH2], the IC50 is 0.02 nM.

Consider `CC[C@H](C)[C@H](NC(=O)[C@H](Cc1ccccc1)NC(=O)[C@H](Cc1ccc(O)cc1)NC(=O)[C@@H]1CCCN1C(=O)[C@@H](N)Cc1ccc(O)cc1)C(=O)N1CCC[C@H]1C(=O)N[C@@H](CC(C)C)C(=O)N[C@@H](CO)C(=O)NCC(=O)NCC(=O)N[C@@H](CCC(=O)O)C(=O)N[C@H](C(=O)N[C@@H](CC(N)=O)C(=O)N[C@@H](CC(C)C)[C@@H](O)CC(=O)N[C@H](C(=O)N[C@@H](C)C(=O)N[C@@H](CCC(=O)O)C(=O)N1CCC[C@@H]1C(=O)N[C@@H](CCCCNC(=O)CCC(=O)O[C@H]1CC[C@@]2(C)C(=CC[C@H]3[C@@H]4CC[C@H]([C@H](C)CCCC(C)C)[C@@]4(C)CC[C@@H]32)C1)C(N)=O)C(C)C)C(C)C` [Example 54, Tyr-Pro-Tyr-Phe-Ile-Pro-Leu-Ser-Gly-Gly-Glu-Val-Asn-Sta-Val-Ala-Glu-DPro-Lys(Chol′ester′)-NH2] (H-YPYFIPLSGGEVN[Sta]VAE[dP]K(Succinyl(4-O-cholesteryl))-NH2), for which the IC50 worked out at 0.052 nM.
